The text below walks through data of paper PMC8715118, “Assessing potentiation of the (α4)3(β2)2 nicotinic acetylcholine receptor by the allosteric agonist CMPI” (The Journal of Biological Chemistry, 2021).

One assay has as its target T1, (α4K64T)3(β2)2 nAChR (Homo sapiens, UniProt P17787+P43681, K90T).
T1 construct: expressed in transfected cells; host or cells: Xenopus laevis oocytes injected with cRNA, 8:1 α4:β2
Description: Two-electrode voltage-clamp, oocytes expressing (α4K64T)3(β2)2 nAChR. It counts as cell-based. The procedure:
Oocytes-positive female Xenopus laevis were purchased from NASCO, and all procedures were performed according to an animal use protocol approved by the Institutional Animals Care and Use Committee of The University of Texas Health Science Center at Tyler. Ovarian lobules were surgically harvested, treated with collagenase type 2, and Stage V and VI oocytes were visually selected and maintained at 18 °C in modified ND96-gentamicin buffer (96 mM NaCl, 2 mM KCl, 1.8 mM CaCl2, 1 mM MgCl2, 5 mM Hepes, and 50 μg/ml gentamicin, pH 7.6).
pSP64 Poly(A) plasmids with cDNA encoding for human α4 or β2 nAChR subunit were used to prepare cRNA transcripts suitable for oocyte expression. The plasmids were linearized with AseI (hα4) and PvuII (hβ2), then cRNA transcripts were prepared in vitro using mMESSAGE mMACHINE high yield-capped RNA transcription kits (Ambion, Thermo Fisher Scientific), purified on NucAway Spin column (Invitrogen, Thermo Fisher Scientific), and stored at −80 °C until used. Point mutations within the plasmid encoding the α4 nAChR subunit were introduced using QuikChange II Site-Directed Mutagenesis Kit (Agilent Technologies), as described previously ([28]). To generate amino acid substitutions (K64T, E66I, H116V, H116L, and H116A), two custom-designed complementary oligos containing the desired mutation were used (Integrated DNA Technologies). The forward primers were as the following with the codon for mutated amino acids are underlined and nucleotide(s) changes are bolded and italicized:
The oocytes were injected with 10 to 50 ng of a cRNA mix containing α4 (WT or mutant) and β2 RNAs at ratios of 8:1(α4:β) or 1:8 (α4:β2) to bias expression toward (α4)3(β2)2 or (α4)2(β2)3 nAChRs, respectively. The injection of oocytes with RNAs mixture containing four folds or higher α4 RNA than β2 RNA have been established to express receptor population that is made up of three α4 and two β2 subunits ([9], [12], [28], [43], [44], [45]).
24 to 72 h after cRNA injection, Xenopus oocytes were placed in a custom-made recording chamber that is connected to an eight-channel automated perfusion system (Warner Instruments) and perfused with recording buffer (100 mM NaCl, 2 mM KCl, 1 mM CaCl2, 0.8 mM MgCl2, 1 mM EGTA, and 10 mM Hepes, pH 7.5). Unless otherwise specified in figure legends, each recording run included several drug applications (10 s of an agonist with or without CMPI or NS9283) separated by 3 to 4 min buffer wash intervals. Between recording runs, the oocytes were washed with recording buffer for at last 5 min. […] The currents were digitized using Digidata 1550A (Axon Instruments, Molecular Devices), and the peak currents were quantified using pCLAMP 10 (Axon Instruments), then normalized and analyzed using Excel 2010 (Microsoft) and SigmaPlot 11.0 (Systat Software). […]
Background: In two-electrode clamp one electrode senses voltage and the other passes current.

The next assay addresses T2, (α4)3(β2)2 nAChR (Homo sapiens, UniProt P17787+P43681).
T2 construct: expressed in transfected cells; host or cells: Xenopus laevis oocytes injected with cRNA, 8:1 α4:β2
Description: Mechanistic (Monod-Wyman-Changeux two-state model) analysis of current responses, WT (α4)3(β2)2 nAChR. It counts as cell-based. From the text:
To gain mechanistic insight into receptor activation in the presence of CMPI, we analyzed the currents in the framework of a cyclic two-state (resting and active) allosteric activation model ([31], [32], [33]). In this model, channel opening is mediated by stabilization of the active state by an agonist that, by definition, has higher affinity to the active than resting state.
We commenced by converting the raw amplitudes of current responses to units of probability of being in the active state (PA units).
Further analysis of electrophysiological data was conducted in the framework of the two-state concerted transition model, adapted from the MWC cyclic model originally used to describe enzyme function ([31], [32], [33]). The raw peak amplitudes of current responses were converted to units of probability of being in the active state (PA).
The numbers of α4:β2 and α4:α4 binding sites (Nα4:β2 and Nα4:α4) were constrained to 2 and 1, respectively.
The concentration-response curve for TC-2559 was fitted to the following equation:(3) PA=1/1+L[1+[TC-2559]/KR,TC-2559,α4:β2/1+[TC-2559]/(KR,TC-2559,α4:β2cTC-2559,α4:β2)]^Nα4:β2
The concentration-response data were analyzed using Equation 3, with the value of L modified to reflect receptor activation by TC-2559, and the affinity and efficacy terms in the equation reflecting the values for CMPI. The number of binding sites for CMPI in Equation 3 was constrained to 1.
Curve fitting was done using Origin 2020 (OriginLab Corp). The results are reported as best-fit parameter ±SD of the fit. All data are included in the analysis.

SMILES strings stand for the structures. Several values for one entry are separate records, joined by “and”; a condition that tells them apart may be missing. Identical values can stand only once. Like-named read-outs stand apart in the source and are kept apart here.

T2 sequence (P43681 27-627): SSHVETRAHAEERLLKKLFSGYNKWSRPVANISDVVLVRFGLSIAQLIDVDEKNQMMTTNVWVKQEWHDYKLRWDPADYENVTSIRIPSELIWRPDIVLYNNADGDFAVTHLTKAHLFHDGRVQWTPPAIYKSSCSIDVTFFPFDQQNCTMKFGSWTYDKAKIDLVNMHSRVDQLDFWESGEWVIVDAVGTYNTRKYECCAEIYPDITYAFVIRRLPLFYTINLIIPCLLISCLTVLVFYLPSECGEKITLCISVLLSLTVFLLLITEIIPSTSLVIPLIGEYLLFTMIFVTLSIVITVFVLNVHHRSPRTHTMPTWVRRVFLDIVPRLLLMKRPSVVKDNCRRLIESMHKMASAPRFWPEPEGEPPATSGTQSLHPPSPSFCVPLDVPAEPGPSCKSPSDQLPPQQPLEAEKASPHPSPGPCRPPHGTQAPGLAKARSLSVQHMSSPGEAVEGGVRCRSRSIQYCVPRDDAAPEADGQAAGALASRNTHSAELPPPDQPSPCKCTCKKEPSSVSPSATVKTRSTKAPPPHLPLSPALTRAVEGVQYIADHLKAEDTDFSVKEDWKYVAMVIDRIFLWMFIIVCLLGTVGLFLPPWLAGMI
T2 sequence (P17787 26-502): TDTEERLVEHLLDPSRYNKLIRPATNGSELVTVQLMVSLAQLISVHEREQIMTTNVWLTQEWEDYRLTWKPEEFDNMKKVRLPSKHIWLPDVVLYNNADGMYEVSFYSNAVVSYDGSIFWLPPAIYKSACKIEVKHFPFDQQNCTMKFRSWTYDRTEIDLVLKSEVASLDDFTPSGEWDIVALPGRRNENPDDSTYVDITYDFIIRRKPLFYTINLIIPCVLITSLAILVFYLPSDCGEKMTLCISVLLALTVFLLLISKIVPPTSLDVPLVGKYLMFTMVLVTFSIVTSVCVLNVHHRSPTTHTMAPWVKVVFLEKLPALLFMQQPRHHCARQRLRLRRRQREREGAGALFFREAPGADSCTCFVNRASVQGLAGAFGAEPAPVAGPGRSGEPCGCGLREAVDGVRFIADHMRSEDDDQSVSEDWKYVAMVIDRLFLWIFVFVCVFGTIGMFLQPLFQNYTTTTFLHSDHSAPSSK
T1 sequence (P43681 27-627 K90T): as the sequence (P43681 27-627) above, with K64T counted along it
T1 sequence (P17787 26-502): as the sequence (P17787 26-502) above

Turning to `Cc1c(-c2cc(-c3ccccc3Cl)no2)cnn1C1CCNCC1` [CMPI, 3-(2-chlorophenyl)-5-(5-methyl-1-(piperidin-4-yl)-1H-pyrrazol-4-yl)isoxazole], the “potentiation fold (Ave ± SD), agonist + 1 μM modulator / agonist alone” value is listed as 0.91 ± 0.08 at (α4K64T)3(β2)2 nAChR (ACh (1 mM)) and 1.17 ± 0.21 on (α4K64T)3(β2)2 nAChR (TC 2559 (30 μM)). Moreover, at (α4)3(β2)2 nAChR (CMPI at the α4:α4 interface, from 1 μM TC-2559 background dataset), the “free energy change toward stabilization of the active state” value is -1.42 kcal/mol. Besides, the ΔGgating on (α4)3(β2)2 nAChR (CMPI at the α4:α4 site, from mean parameters) was -1.35 kcal/mol. The “cCMPI,α4:α4” value stood at 0.090 ± 0.004 at (α4)3(β2)2 nAChR (background of 1 μM TC-2559); 0.074 ± 0.009 at (α4)3(β2)2 nAChR (background of 1 μM cytisine); 0.065 ± 0.007 on (α4)3(β2)2 nAChR (background of 1 μM nicotine); 0.145 ± 0.008 at (α4)3(β2)2 nAChR (background of 10 μM ACh); 0.129 ± 0.009 at (α4)3(β2)2 nAChR (background of 10 μM TC-2559). The Kd was 170 ± 30 nM on (α4)3(β2)2 nAChR (background of 1 μM TC-2559, 0.01 to 3 μM CMPI, read-out: KR,CMPI,α4:α4); 430 ± 170 nM at (α4)3(β2)2 nAChR (background of 1 μM cytisine, read-out: KR,CMPI,α4:α4); 400 ± 100 nM on (α4)3(β2)2 nAChR (background of 1 μM nicotine, read-out: KR,CMPI,α4:α4); 290 ± 60 nM on (α4)3(β2)2 nAChR (background of 10 μM ACh, read-out: KR,CMPI,α4:α4); 90 ± 20 nM on (α4)3(β2)2 nAChR (background of 10 μM TC-2559, read-out: KR,CMPI,α4:α4); 90 to 430 nM at (α4)3(β2)2 nAChR (five approaches, read-out: KR,CMPI,α4:α4, range of estimates). The Kd on (α4)3(β2)2 nAChR (mean of the five approaches, read-out: mean KR,CMPI,α4:α4) is 280 ± 150 nM. At (α4)3(β2)2 nAChR (mean of the five approaches), the “mean cCMPI,α4:α4” value is 0.101 ± 0.035 and 0.101.
